Test results reported in the supplement of paper PMC10307832.

Assays:
Assay in all cases: relative viability (nuclei count vs DMSO), 5 days (fraction); higher = more cells survive
[1] = compound: CCOC(=O)CCNc1cc(N2CCc3ccccc3CC2)nc(-c2ccccn2)n1 [GSK-J4] + CCNC(=O)c1noc(-c2cc(C(C)C)c(O)cc2O)c1-c1ccc(CN2CCOCC2)cc1 [Luminespib] (partner 0.01 µM)
How it was run: (§1)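 A single step with final 0.05% Triton X-100, 1% formaldehyde and 1 ug/ml Hoechst fixed the cells and stained nuclei 5 days after treatment. Lung cancer cell lines in 1536-well plates had been treated by pin tool the day after seeding with one drug alone or a fixed anchor-drug dose plus five library-drug doses (not always all listed) in √10 steps, and nuclei were counted on 4× images. Relative viability is the ratio of nuclei in treated wells to nuclei in vehicle wells, taken as the median of duplicate plates.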

[2] = compound: CN1CCC(CC1)OC2=CC(=C(C=C2)NC3=NC=C4C(=N3)N(C(=O)N4C)C5CCCC5)OC [AZ3146] + COc1cccc2cc(-c3nc([C@H]4CC[C@H](C(=O)O)CC4)n4ncnc(N)c34)[nH]c12 [OSI-027] (partner 0.5 µM)
How it was run: as §1

[3] = compound: CCOC(=O)CCNc1cc(N2CCc3ccccc3CC2)nc(-c2ccccn2)n1 [GSK-J4] + CS(=O)(=O)N1CCN(Cc2cc3nc(-c4cccc5[nH]ncc45)nc(N4CCOCC4)c3s2)CC1 [Pictilisib] (partner 1 µM)
How it was run: as §1

[4] = compound: CN1CCC(CC1)OC2=CC(=C(C=C2)NC3=NC=C4C(=N3)N(C(=O)N4C)C5CCCC5)OC [AZ3146] + NC(=O)Nc1cc(-c2cccc(F)c2)sc1C(=O)N[C@H]1CCCNC1 [AZD7762] (partner 0.2 µM)
How it was run: as §1

Cell Line	relative viability ([1]; first compound 0.5 µM)	relative viability ([1]; first compound 1.581 µM)	relative viability ([1]; first compound 5 µM)	relative viability ([1]; first compound 15.81 µM)	relative viability ([1]; first compound 50 µM)	relative viability ([2]; first compound 0.08 µM)	relative viability ([2]; first compound 0.253 µM)	relative viability ([2]; first compound 0.8 µM)	relative viability ([2]; first compound 2.53 µM)	relative viability ([2]; first compound 8 µM)	relative viability ([3]; first compound 0.5 µM)	relative viability ([3]; first compound 5 µM)	relative viability ([3]; first compound 15.81 µM)	relative viability ([3]; first compound 50 µM)	relative viability ([4]; first compound 0.08 µM)	relative viability ([4]; first compound 0.253 µM)	relative viability ([4]; first compound 0.8 µM)	relative viability ([4]; first compound 2.53 µM)	relative viability ([4]; first compound 8 µM)	relative viability ([3]; first compound 1.581 µM)
NCI-H1666	1.02	0.925	1.11	1.03	0.735	0.866	0.881	0.922	0.806	0.839	0.325	0.419	0.603	0.364	0.819	0.806	0.808	0.74	0.887	–
NCI-H1734	0.209	0.167	0.181	0.186	0.155	0.592	0.554	0.641	0.591	0.553	0.464	0.401	0.426	0.341	0.262	0.535	0.545	0.563	0.337	0.508
NCI-H1755	0.355	0.387	0.504	0.326	0.383	0.589	0.737	0.575	0.72	0.802	0.453	0.378	0.387	0.331	0.502	0.482	0.455	0.445	0.519	0.38
NCI-H1792	0.46	–	0.533	0.358	0.454	0.638	0.735	–	0.699	0.714	0.306	0.254	0.244	0.263	0.414	0.631	0.641	0.601	0.617	0.25
NCI-H1793	0.261	0.192	0.18	0.258	0.134	0.321	0.256	0.226	0.329	0.247	0.249	0.54	0.364	0.337	0.259	0.397	0.259	0.229	0.178	0.171
NCI-H1915	0.824	0.791	–	0.657	0.613	0.519	0.637	0.663	0.625	0.628	0.905	0.901	0.962	1.03	0.673	0.714	0.75	0.729	0.745	0.774
NCI-H1944	0.762	0.711	0.851	0.649	0.799	0.382	0.359	0.446	0.464	0.374	0.374	0.353	0.336	0.288	0.311	0.509	0.482	0.516	0.469	0.346
NCI-H1975	0.261	0.202	–	0.178	0.284	0.677	0.747	0.785	0.71	0.416	0.279	–	0.344	0.402	0.628	–	0.752	0.778	0.638	0.31
NCI-H1993	0.885	0.803	0.779	0.525	0.494	0.531	0.579	0.541	0.531	0.543	0.834	0.807	0.684	0.725	0.662	0.695	0.812	1.01	0.581	0.845
